Reference: patent US7799530B2, “Genetic polymorphisms associated with cardiovascular disorders and drug response, methods of detection and uses thereof” (Celera Corporation, priority 2005, dated 2010)

System: recurrent myocardial infarction (RMI) in CARE patients
Assay: CARE trial: recurrent MI in pravastatin- vs placebo-treated patients stratified by SNP genotype
Format: in vivo, human
Settings: for HR, on-trial MI, Unadjusted: placebo = ref 1.00; for HR, on-trial MI, Adjusted: placebo = ref 1.00, adjusted for age, smoking, hypertension, diabetes, BMI, LDL-C, HDL-C; for OR_dom, risk of RMI / OR_het, risk of RMI / OR_maj, risk of RMI / OR_min, risk of RMI / OR, risk of RMI: placebo- vs. pravastatin-treated patients; for Risk Reduction by Statin (Pravastatin vs. Placebo) OR: odds ratio of recurrent MI, pravastatin- vs placebo-treated, heterozygous carriers of hCV3054799 only
Source text: In order to identify genetic markers associated with acute coronary events (e.g. MI, stroke, unstable angina, congestive heart failure, etc.) or response to statin treatment for the prevention of coronary events, samples were genotyped in two clinical trials: the Cholesterol and Recurrent Events (CARE) study (a randomized multicentral double-blinded trial on secondary prevention of acute coronary events with pravastatin; Sacks et al., Am. J. Cardiol. 68: 1436-1446[1991]), and the West of Scotland Coronary Prevention Study (WOSCOPS) study (Shepherd et al., N Eng J Med 333 (20), pp. 1301-7, Nov. 16, 1995; Packard et al., N Eng J Med 343 (16), pp. 1148-55, Oct. 19, 2000).
A well-documented myocardial infarction (MI) was one of the enrollment criteria for entry into the CARE study. Patients were enrolled in the CARE trial from 80 participating study centers. […] Patients were randomized to receive either 40 mg of pravastatin once daily or a matching placebo. The primary endpoint of the trial was death from coronary heart disease and the median duration of follow-up was 5.0 years (range, 4.0 to 6.2 years). All individuals included in the study had signed informed consent forms and the study protocol was approved by the respective Institutional Review Boards (IRBs).
For genotyping SNPs in CARE patient samples, DNA was extracted from blood samples using conventional DNA extraction methods such as the QIAamp kit from Qiagen. Genotypes were obtained by a method similar to that described by Lannone (M. A. Lannone et al., Cytometry 39(2):131-140 [Feb. 1, 2000]; also described in section “SNP DETECTION REAGENTS,” supra). Briefly, target DNA was amplified by multiplex PCR, the amplified product was submitted to a multiplex oligo ligation assay (OLA), the specific ligated products were hybridized to unique universal “ZIP code” oligomer sequences covalently attached to Luminex xMAP® Multi-Analyte COOH Microspheres, and these hybridization products/microspheres were detected in a rapid automated multiplex system using the Luminex 100 instrument. Alternatively, allele specific primers were designed for detecting each SNP and genotypes were obtained on an ABI PRISM® 7900HT Sequence Detection PCR system (Applied Biosystems) by allele-specific PCR, similar to the method described by Germer et al (Germer S., Holland M. J., Higuchi R. 2000, Genome Res. 10: 258-266). […]
In analyzing the CARE patients, statistical analysis was performed with SAS version 9. Cox proportional hazard models (Wald tests) were used in CARE to assess the association of genotype with both the risk of incident MI in the placebo arm and the effect of on MI pravastatin compared to placebo in subgroups defined by genotypes. In analyzing the WOSCOPS patients, a conditional logistic regression model was used in WOSCOPS given that the controls had been previously matched to the cases. The column entitled “On-trial MI” lists the number of patients who suffered an RMI during the clinical trial period.
An additional 175 markers were analyzed in samples from the CARE study (secondary MI prevention trial). […] Of the cases, 150 received placebo treatment and 114 received pravastatin; of the controls, 1290 received placebo and 1359 received pravastatin.
The genotypes for each SNP were tested for association with RMI. This genotypic test of association (i.e., minor homozygote genotype vs. major, and heterozygote vs. major) was performed separately for placebo-treated patients and for all patients unstratified by treatment group, using the Fisher's exact method. […] The reliability of the OR for each particular SNP is confirmed by its respective 95% confidence interval (CI) and P value, also shown. From Table 14 one can see the association of several SNPs with MI risk when they are present in a Homozygous Minor genotype (association based on an OR>1, the lower limit of the 95% CI>1 and a P value <0.05). […]

[1] = marker hCV2741051, heterozygous
[2] = marker hCV2741051, major homozygous
[3] = marker hCV2741051, minor homozygous
[4] = marker hCV25745415, heterozygous
[5] = marker hCV25745415, major homozygous
[6] = marker hCV25745415, minor homozygous

Question: CC[C@H](C)C(=O)O[C@H]1C[C@H](O)C=C2C=C[C@H](C)[C@H](CC[C@@H](O)C[C@@H](O)CC(=O)O)[C@H]21 [pravastatin] was tested. Which “HR, on-trial MI, Unadjusted” value (KIF6 hCV3054799 AA) did it give?
Answer: 0.86

Question: What about the “HR, on-trial MI, Adjusted” value (KIF6 hCV3054799 AA) of the same molecule?
Answer: 0.80

Question: What about the “HR, on-trial MI, Unadjusted” value (KIF6 hCV3054799 GG + GA) of the same molecule?
Answer: 0.63

Question: And the “HR, on-trial MI, Adjusted” value (KIF6 hCV3054799 GG + GA)?
Answer: 0.63

Question: And the “OR_dom, risk of RMI” value (marker hCV465412, Dominant)?
Answer: 0.50

Question: And the “OR_het, risk of RMI” value (marker hCV465412, Heterozygous)?
Answer: 0.47

Question: And the “OR_maj, risk of RMI” value (marker hCV465412, Major Homozygous)?
Answer: 0.80

Question: And the “OR_min, risk of RMI” value (marker hCV465412, Minor Homozygous)?
Answer: 1.35

Question: And the “OR, risk of RMI” value (marker hCV881283, heterozygous)?
Answer: 0.19

Question: What about the “OR, risk of RMI” value (marker hCV881283, major homozygous) of the same molecule?
Answer: 0.76

Question: And the “OR, risk of RMI” value (marker hCV881283, minor homozygous)?
Answer: 0.00

Question: What about the “OR, risk of RMI” value (marker hCV1603656, heterozygous) of the same molecule?
Answer: 0.33

Question: What about the “OR, risk of RMI” value (marker hCV1603656, major homozygous) of the same molecule?
Answer: 0.87

Question: What about the “OR, risk of RMI” value (marker hCV1603656, minor homozygous) of the same molecule?
Answer: 0.00

Question: And the “OR_dom, risk of RMI” value (marker hCV2741051, Dominant)?
Answer: 1.07

Question: And the “OR, risk of RMI” value [1]?
Answer: 1.02

Question: What about the “OR_het, risk of RMI” value [1] of the same molecule?
Answer: 1.02

Question: And the “OR, risk of RMI” value [2]?
Answer: 0.55

Question: And the “OR_maj, risk of RMI” value [2]?
Answer: 0.55

Question: What about the “OR, risk of RMI” value [3] of the same molecule?
Answer: 1.68

Question: And the “OR_min, risk of RMI” value [3]?
Answer: 1.68

Question: And the “OR_dom, risk of RMI” value (marker hCV3054799, Dominant)?
Answer: 0.65

Question: And the “OR_het, risk of RMI” value (marker hCV3054799, Heterozygous)?
Answer: 0.57

Question: And the “OR_maj, risk of RMI” value (marker hCV3054799, Major Homozygous)?
Answer: 0.98

Question: And the “OR_min, risk of RMI” value (marker hCV3054799, Minor Homozygous)?
Answer: 1.00

Question: And the “OR_dom, risk of RMI” value (marker hCV7514870, Dominant)?
Answer: 0.69

Question: What about the “OR_het, risk of RMI” value (marker hCV7514870, Heterozygous) of the same molecule?
Answer: 0.83

Question: What about the “OR_maj, risk of RMI” value (marker hCV7514870, Major Homozygous) of the same molecule?
Answer: 0.80

Question: What about the “OR_min, risk of RMI” value (marker hCV7514870, Minor Homozygous) of the same molecule?
Answer: 0.37

Question: What about the “OR_dom, risk of RMI” value (marker hCV11450617, Dominant) of the same molecule?
Answer: 0.62

Question: And the “OR_het, risk of RMI” value (marker hCV11450617, Heterozygous)?
Answer: 0.61

Question: What about the “OR_maj, risk of RMI” value (marker hCV11450617, Major Homozygous) of the same molecule?
Answer: 0.78

Question: What about the “OR_min, risk of RMI” value (marker hCV11450617, Minor Homozygous) of the same molecule?
Answer: 0.68

Question: And the “OR, risk of RMI” value (marker hCV12107274, heterozygous)?
Answer: 0.78

Question: And the “OR, risk of RMI” value (marker hCV12107274, major homozygous)?
Answer: 0.55

Question: What about the “OR, risk of RMI” value (marker hCV12107274, minor homozygous) of the same molecule?
Answer: 1.75

Question: And the “OR, risk of RMI” value (marker hCV15965459, heterozygous)?
Answer: 0.35

Question: And the “OR, risk of RMI” value (marker hCV15965459, major homozygous)?
Answer: 0.82

Question: What about the “OR, risk of RMI” value (marker hCV15965459, minor homozygous) of the same molecule?
Answer: 0.95

Question: What about the “OR_dom, risk of RMI” value (marker hCV15973230, Dominant) of the same molecule?
Answer: 0.91

Question: What about the “OR_het, risk of RMI” value (marker hCV15973230, Heterozygous) of the same molecule?
Answer: 0.91

Question: And the “OR_maj, risk of RMI” value (marker hCV15973230, Major Homozygous)?
Answer: 0.60

Question: And the “OR_min, risk of RMI” value (marker hCV15973230, Minor Homozygous)?
Answer: 0.71

Question: What about the “OR, risk of RMI” value (marker hCV15974589, heterozygous) of the same molecule?
Answer: 0.67

Question: And the “OR, risk of RMI” value (marker hCV15974589, major homozygous)?
Answer: 0.43

Question: What about the “OR, risk of RMI” value (marker hCV15974589, minor homozygous) of the same molecule?
Answer: 1.51

Question: And the “OR, risk of RMI” value (marker hCV16054991, heterozygous)?
Answer: 0.53

Question: What about the “OR, risk of RMI” value (marker hCV16054991, major homozygous) of the same molecule?
Answer: 0.88

Question: And the “OR, risk of RMI” value (marker hCV16054991, minor homozygous)?
Answer: 0.43

Question: What about the “OR, risk of RMI” value (marker hCV25472673, heterozygous) of the same molecule?
Answer: 0.61

Question: What about the “OR, risk of RMI” value (marker hCV25472673, major homozygous) of the same molecule?
Answer: 1.13

Question: And the “OR, risk of RMI” value (marker hCV25472673, minor homozygous)?
Answer: 0.49

Question: And the “OR, risk of RMI” value (marker hCV25623506, heterozygous)?
Answer: 3.29

Question: And the “OR, risk of RMI” value (marker hCV25623506, major homozygous)?
Answer: 0.65

Question: What about the “OR, risk of RMI” value (marker hCV25623506, minor homozygous) of the same molecule?
Answer: 0.00

Question: And the “OR_dom, risk of RMI” value (marker hCV25745415, Dominant)?
Answer: 0.92

Question: What about the “OR, risk of RMI” value [4] of the same molecule?
Answer: 0.73

Question: And the “OR_het, risk of RMI” value [4]?
Answer: 0.73

Question: And the “OR, risk of RMI” value [5]?
Answer: 0.56

Question: What about the “OR_maj, risk of RMI” value [5] of the same molecule?
Answer: 0.56

Question: What about the “OR, risk of RMI” value [6] of the same molecule?
Answer: 5.87

Question: What about the “OR_min, risk of RMI” value [6] of the same molecule?
Answer: 5.87

Question: What about the “OR, risk of RMI” value (marker hCV25749177, heterozygous) of the same molecule?
Answer: 0.74

Question: And the “OR, risk of RMI” value (marker hCV25749177, major homozygous)?
Answer: 0.57

Question: And the “OR, risk of RMI” value (marker hCV25749177, minor homozygous)?
Answer: 2.81

Question: And the “OR_dom, risk of RMI” value (marker hCV25963691, Dominant)?
Answer: 0.64

Question: What about the “OR_het, risk of RMI” value (marker hCV25963691, Heterozygous) of the same molecule?
Answer: 0.62

Question: And the “OR_maj, risk of RMI” value (marker hCV25963691, Major Homozygous)?
Answer: 0.71

Question: And the “OR_min, risk of RMI” value (marker hCV25963691, Minor Homozygous)?
Answer: 0.72

Question: What about the “Risk Reduction by Statin (Pravastatin vs. Placebo) OR” value of the same molecule?
Answer: approximately 0.5

Question: And the “Risk Reduction by Statin (Pravastatin vs. Placebo) OR” value (listed as Pravastatin)?
Answer: 0.54
